Assay results taken from patent publication US12435061B2 (priority 2020, dated 2025).
Structures can show the parent of a compound that is named as a salt. Where two headings read alike, the source gives them in different places.

Molecular target: hTRPV3 (Homo sapiens (Human), UniProt Q8NET8)
Experiment: Whole-cell patch clamp, hTRPV3 Phase 1 / Phase 2 currents
Format: cell-based
Method in brief: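 Currents are activated by 20 μM 2-APB or by perfusate at 28 °C or warmer, in Ringer's solution, and quantified at ±80 mV.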

[1] = Phase 1 current, inward, whole-cell patch clamp, read-out: hTRPV3 Patch P1 Inwd
[2] = Phase 1 current, read-out: hTRPV3 (nM) (Phase 1)
[3] = Phase 1 current, human TRPV3, read-out: hTRPV3 (nM) Phase 1
[4] = Phase 2 current, inward, whole-cell patch clamp, read-out: hTRPV3 Patch P2 Inwd
[5] = Phase 2 current, read-out: hTRPV3 (nM) (Phase 2)

Chain of hTRPV3 (Q8NET8 whole entry): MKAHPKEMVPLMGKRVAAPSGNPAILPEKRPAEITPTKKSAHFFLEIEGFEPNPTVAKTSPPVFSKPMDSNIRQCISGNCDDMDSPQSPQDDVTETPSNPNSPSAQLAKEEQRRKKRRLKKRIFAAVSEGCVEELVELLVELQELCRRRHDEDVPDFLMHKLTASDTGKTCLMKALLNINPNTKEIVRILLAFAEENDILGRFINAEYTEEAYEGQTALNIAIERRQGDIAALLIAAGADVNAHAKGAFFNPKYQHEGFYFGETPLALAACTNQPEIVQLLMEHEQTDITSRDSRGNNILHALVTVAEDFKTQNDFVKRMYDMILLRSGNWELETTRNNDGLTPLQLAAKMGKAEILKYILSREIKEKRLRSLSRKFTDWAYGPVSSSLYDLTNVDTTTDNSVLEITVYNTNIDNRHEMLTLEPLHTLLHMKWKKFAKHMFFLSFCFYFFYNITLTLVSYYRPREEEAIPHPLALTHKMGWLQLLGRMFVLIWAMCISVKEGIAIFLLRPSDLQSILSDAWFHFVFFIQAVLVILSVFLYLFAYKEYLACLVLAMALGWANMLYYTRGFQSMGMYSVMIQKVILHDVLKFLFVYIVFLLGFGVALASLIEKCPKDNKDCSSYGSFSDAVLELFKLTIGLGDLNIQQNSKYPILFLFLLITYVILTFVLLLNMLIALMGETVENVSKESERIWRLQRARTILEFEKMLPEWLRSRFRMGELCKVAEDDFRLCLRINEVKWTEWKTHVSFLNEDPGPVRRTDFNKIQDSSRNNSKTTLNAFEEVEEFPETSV

How did the IC50 [1] turn out when `OCCc1cc(C(O)c2ccc(Cl)cc2)ccc1N1CC[C@H](Nc2ccc(F)cn2)C1` (stereo partly drawn) [Compound 1-391, 2-(5-((4-chlorophenyl)(hydroxy)methyl)-2-((S)-3-(5-fluoropyridin-2-ylamino)pyrrolidin-1-yl)phenyl)ethanol] was run?
The IC50 was greater than 1000 nM.

And the IC50 [2]?
Its IC50 is greater than 3200 nM.

For `CC(C)c1ccccc1Oc1ccc(C2CC(=O)N(Cc3ccccn3)C2)c(C(N)=O)c1` (stereo not shown) [Compound 2-99, 5-(2-isopropylphenoxy)-2-(5-oxo-1-(pyridin-2-ylmethyl)pyrrolidin-3-yl)benzamide], which IC50 [3] is on record?
The IC50 was greater than 3200 nM.

What about the IC50 [1] of the same molecule?
The IC50 was greater than 1000 nM.

Which IC50 [1] does the source give for `CCc1ccccc1C(O)c1ccc(N2CC[C@H](Oc3ncccc3Cl)C2)c(CO)c1` (stereo partly drawn) [Compound 1-260, (4-((S)-3-(3-chloropyridin-2-yloxy)pyrrolidin-1-yl)-3-(hydroxymethyl)phenyl)(2-ethylphenyl)methanol] here?
Its IC50 is greater than 1000 nM.

And the IC50 [2]?
The IC50 was 3150 nM.

`O=C(c1ncccc1Cl)N1CCC(c2ccc(C(O)c3ccccc3Cl)cc2CO)C1` (stereo not shown) [Compound 2-11, (3-(4-((2-chlorophenyl)(hydroxy)methyl)-2-(hydroxymethyl)phenyl)pyrrolidin-1-yl)(3-chloropyridin-2-yl)methanone] was tested. Which IC50 [3] did it give?
Its IC50 is greater than 3200 nM.

What about the IC50 [1] of the same molecule?
The IC50 was greater than 1000 nM.

How did the IC50 [1] turn out when `COc1cc(-c2ccccc2Cl)ccc1N1CC[C@@H](Oc2ccc(C(F)(F)F)cn2)C1` [Compound 1-112, (R)-2-(1-(2′-chloro-3-methoxybiphenyl-4-yl)pyrrolidin-3-yloxy)-5-(trifluoromethyl)pyridine] was run?
The IC50 was greater than 1000 nM.

What about the IC50 [2] of the same molecule?
Its IC50 is roughly 2900 nM.

And the “hTRPV3 (nM) (Phase 2)” value (Phase 2 current)?
The value was “Incomplete Block”.

How did the IC50 [3] turn out when `Cc1ccc(C(O)c2ccc(C3CCN(C(=O)c4ncccc4Cl)C3)c(CO)c2)cc1` (stereo not shown) [Compound 2-6, (3-chloropyridin-2-yl)(3-(4-(hydroxy(p-tolyl)methyl)-2-(hydroxymethyl)phenyl)pyrrolidin-1-yl)methanone] was run?
Its IC50 is greater than 3200 nM.

And the IC50 [1]?
Its IC50 is greater than 1000 nM.

What does the source list for `Cc1ccccc1-c1ccc(N2CC[C@H](Oc3ncccc3F)C2)c(CO)n1` [Compound 1-216, (S)-(3-(3-(3-fluoropyridin-2-yloxy)pyrrolidin-1-yl)-6-o-tolylpyridin-2-yl)methanol]?
IC50 [1]: > 1000 nM; IC50 [2]: 1160 nM

`COCc1ccccc1-c1ccc(C2CCN(C(=O)c3ccc(Cl)cn3)C2)c(CO)c1` (stereo not shown) [Compound 2-65, (5-chloropyridin-2-yl)(3-(3-(hydroxymethyl)-2′-(methoxymethyl)biphenyl-4-yl)pyrrolidin-1-yl)methanone] was tested. Which IC50 [3] did it give?
Its IC50 is 97.7 nM.

What about the IC50 [1] of the same molecule?
The IC50 was 10 to 100 nM.

`Cc1ccc(C(=O)c2ccc(C3CCN(C(=O)c4ncccc4Cl)C3)c(CO)c2)cc1` (stereo not shown) [Compound 2-7] was tested. Which IC50 [3] did it give?
The IC50 was greater than 3200 nM.

And the IC50 [1]?
Its IC50 is greater than 1000 nM.

Which results are given for `NC(=O)c1cc(-c2ccccc2)ccc1N1CC[C@@H](Oc2ccc3cc(Cl)ccc3n2)C1` [Compound 1-86, (R)-4-(3-(6-chloroquinolin-2-yloxy)pyrrolidin-1-yl)biphenyl-3-carboxamide]?
IC50 [4]: > 1000 nM; IC50 [5]: > 3200 nM

Which IC50 [1] does the source give for `CC(C)(C)NS(=O)(=O)c1cc(-c2ccccc2)ccc1N1CCC(Oc2ccc(C(F)(F)F)cn2)C1` (stereo in doubt) [Compound 1-96, (S)—N-tert-butyl-4-(3-(5-(trifluoromethyl)pyridin-2-yloxy)pyrrolidin-1-yl)biphenyl-3-sulfonamide] here?
Its IC50 is greater than 1000 nM.

And the IC50 [2]?
Its IC50 is greater than 3200 nM.

And the IC50 [4]?
The IC50 was greater than 1000 nM.

And the IC50 [5]?
Its IC50 is greater than 3200 nM.

Which IC50 [3] does the source give for `CCc1ccccc1Oc1ccc(C2CCN(C(=O)c3ncccc3Cl)C2)c(C(N)=O)c1` (stereo not shown) [Compound 2-37, 2-(1-(3-chloropicolinoyl)pyrrolidin-3-yl)-5-(2-ethylphenoxy)benzamide] here?
Its IC50 is roughly 2190 nM.

What about the IC50 [1] of the same molecule?
The IC50 was greater than 1000 nM.

For `CCc1ccccc1Oc1ccc(C2CCN(C(=O)c3ccc(Cl)cn3)C2)c(C(N)=O)c1` (stereo not shown) [Compound 2-39, 2-(1-(5-chloropicolinoyl)pyrrolidin-3-yl)-5-(2-ethylphenoxy)benzamide], which IC50 [3] is on record?
Its IC50 is 681 nM.

And the IC50 [1]?
Its IC50 is 100 to 1000 nM.

`O=C(NCCO)c1cc(-c2ccccc2)ccc1N1CC[C@H](Oc2ccc(C(F)(F)F)cn2)C1` [Compound 1-153, (S)—N-(2-hydroxyethyl)-4-(3-(5-(trifluoromethyl)pyridin-2-yloxy)pyrrolidin-1-yl)biphenyl-3-carboxamide] was tested. Which IC50 [1] did it give?
Its IC50 is greater than 1000 nM.

And the IC50 [2]?
The IC50 was 4420 nM.

For `Cc1ccc(O[C@H]2CCN(c3ccc(-c4ncccc4C)cc3CO)C2)nc1` [Compound 1-259, (S)-(5-(3-methylpyridin-2-yl)-2-(3-(5-methylpyridin-2-yloxy)pyrrolidin-1-yl)phenyl) methanol], which IC50 [1] is on record?
The IC50 was greater than 1000 nM.

And the IC50 [2]?
Its IC50 is 3050 nM.

And the IC50 [4]?
Its IC50 is greater than 1000 nM.

And the IC50 [5]?
Its IC50 is 2260 nM.

How did the IC50 [2] turn out when `COc1cc(-c2ccccc2)ccc1N1CC[C@@H](Oc2ncc(C(F)(F)F)cc2Cl)C1` [Compound 1-120, (R)-3-chloro-2-(1-(3-methoxybiphenyl-4-yl)pyrrolidin-3-yloxy)-5-(trifluoromethyl)pyridine] was run?
Its IC50 is greater than 3200 nM.

And the IC50 [5]?
The IC50 was greater than 3200 nM.

And the IC50 (hTRPV3 Patch P1 Inwd (nM), Phase 1 current, inward, whole-cell patch clamp)?
The IC50 was greater than 1000 nM.

And the IC50 (hTRPV3 Patch P2 Inwd (nM), Phase 2 current, inward, whole-cell patch clamp)?
Its IC50 is greater than 1000 nM.

What does the source list for `NCc1cc(-c2ccccc2)ccc1N1CC[C@H](Oc2ncccc2Cl)C1` [Compound 1-125, (S)-(4-(3-(3-chloropyridin-2-yloxy)pyrrolidin-1-yl)biphenyl-3-yl)methanamine hydrochloride]?
IC50 [4]: > 1000 nM; IC50 [5]: > 3200 nM

How did the IC50 [1] turn out when `CNC(=O)c1ccccc1N1CC[C@@H](Oc2ccc(C(F)(F)F)cn2)C1` [Compound 1-47, (R)—N-methyl-2-(3-(5-(trifluoromethyl)pyridin-2-yloxy)pyrrolidin-1-yl)benzamide] was run?
The IC50 was greater than 1000 nM.

`OCCc1cc(C(O)c2ccc(F)cc2)ccc1N1CC[C@H](Oc2ncccc2Cl)C1` (stereo partly drawn) [Compound 1-296, 2-(2-((S)-3-(3-chloropyridin-2-yloxy)pyrrolidin-1-yl)-5-((4-fluorophenyl)(hydroxy)methyl)phenyl)ethanol] was tested. Which IC50 [1] did it give?
Its IC50 is greater than 1000 nM.

And the IC50 [2]?
The IC50 was 1070 nM.

And the IC50 [4]?
Its IC50 is greater than 1000 nM.

What about the IC50 [5] of the same molecule?
The IC50 was 2160 nM.

With `CN(C)Cc1ccccc1N1CC[C@@H](Oc2ccc(C(F)(F)F)cn2)C1` [Compound 1-60, (R)—N,N-dimethyl-1-(2-(3-(5-(trifluoromethyl)pyridin-2-yloxy)pyrrolidin-1-yl)phenyl) methanamine hydrochloride] as the molecule, how does the IC50 [1] read?
Its IC50 is greater than 1000 nM.

What about the IC50 [4] of the same molecule?
Its IC50 is greater than 1000 nM.

How did the IC50 [1] turn out when `NCc1cc(-c2ccccc2Cl)ccc1N1CC[C@H](Oc2ncccc2Cl)C1` [Compound 1-122, (S)-(2′-chloro-4-(3-(3-chloropyridin-2-yloxy)pyrrolidin-1-yl)biphenyl-3-yl)methanamine hydrochloride] was run?
The IC50 was greater than 1000 nM.

What about the IC50 [2] of the same molecule?
Its IC50 is greater than 3200 nM.

And the IC50 [4]?
Its IC50 is greater than 1000 nM.

What about the IC50 [5] of the same molecule?
Its IC50 is less than 3200 nM.

`O=C(c1cccc(Cl)c1)c1ccc(N2CC[C@H](Oc3ncccc3Cl)C2)c(CCO)c1` [Compound 1-328, (S)-(3-chlorophenyl)(4-(3-(3-chloropyridin-2-yloxy)pyrrolidin-1-yl)-3-(2-hydroxyethyl)phenyl)methanone] was tested. Which IC50 [1] did it give?
The IC50 was 100 to 1000 nM.

And the IC50 [2]?
Its IC50 is 615 nM.

How did the IC50 [1] turn out when `N#Cc1cccc(C(O)c2ccc(N3CC[C@H](Oc4ncccc4Cl)C3)c(CCO)c2)c1` (stereo partly drawn) [Compound 1-356, 3-((4-((S)-3-(3-chloropyridin-2-yloxy)pyrrolidin-1-yl)-3-(2-hydroxyethyl)phenyl)(hydroxy)methyl)benzonitrile] was run?
Its IC50 is greater than 1000 nM.

And the IC50 [2]?
Its IC50 is greater than 3200 nM.

Which IC50 [3] does the source give for `CC(C)c1ccccc1Oc1ccc(C2CCN(C(=O)c3ccc(C(F)(F)F)cn3)C2)c(CO)c1` (stereo not shown) [Compound 2-21, (3-(2-(hydroxymethyl)-4-(2-isopropylphenoxy)phenyl)pyrrolidin-1-yl)(5-(trifluoromethyl)pyridin-2-yl)methanone] here?
Its IC50 is 97.1 nM.

What about the IC50 [1] of the same molecule?
The IC50 was 10 to 100 nM.

How did the IC50 [3] turn out when `CC(C)c1ccccc1Oc1ccc(C2CCN(C(=O)c3ccccn3)C2)c(C(N)=O)c1` (stereo not shown) [Compound 2-31, 5-(2-isopropylphenoxy)-2-(1-picolinoylpyrrolidin-3-yl)benzamide] was run?
Its IC50 is 1370 nM.

What about the IC50 [1] of the same molecule?
The IC50 was greater than 1000 nM.

With `CN(C(=O)c1ccc(N2CC[C@H](Oc3ncccc3Cl)C2)c(CCO)c1)c1ccccc1` [Compound 1-337, (S)-4-(3-(3-chloropyridin-2-yloxy)pyrrolidin-1-yl)-3-(2-hydroxyethyl)-N-methyl-N-phenylbenzamide] as the molecule, how does the IC50 [1] read?
The IC50 was greater than 1000 nM.

What about the IC50 [2] of the same molecule?
The IC50 was greater than 3200 nM.

Which results are given for `CC(C)Oc1ccccc1N1CC[C@H](Oc2ccc(C(F)(F)F)cn2)C1` [Compound 1-15, (S)-2-(1-(2-isopropoxyphenyl)pyrrolidin-3-yloxy)-5-(trifluoromethyl)pyridine]?
IC50 [1]: > 1000 nM; IC50 [4]: > 1000 nM

For `O=C(c1ccc(F)cc1)c1ccc(N2CC[C@H](Oc3ncccc3F)C2)c(CO)c1` [Compound 1-293, (S)-(4-fluorophenyl)(4-(3-(3-fluoropyridin-2-yloxy)pyrrolidin-1-yl)-3-(hydroxymethyl)phenyl)methanone], which IC50 [1] is on record?
Its IC50 is 100 to 1000 nM.

And the IC50 [2]?
Its IC50 is 329 nM.

What about the IC50 [4] of the same molecule?
Its IC50 is 100 to 1000 nM.

And the IC50 [5]?
Its IC50 is 322 nM.

What does the source list for `O=C(c1cccc(F)c1)c1ccc(N2CC[C@H](Oc3ncccc3Cl)C2)c(CCO)c1` [Compound 1-311, (S)-(4-(3-(3-chloropyridin-2-yloxy)pyrrolidin-1-yl)-3-(2-hydroxyethyl)phenyl)(3-fluorophenyl)methanone]?
IC50 [1]: 100 to 1000 nM; IC50 [2]: 417 nM

What does the source list for `OCC(O)c1cc(-c2ccccc2)ccc1N1CC[C@H](Oc2ccc(C(F)(F)F)cn2)C1` (stereo partly drawn) [Compound 1-148, 1-(4-((S)-3-(5-(trifluoromethyl)pyridin-2-yloxy)pyrrolidin-1-yl)biphenyl-3-yl)ethane-1,2-diol]?
IC50 [1]: 100 to 1000 nM; IC50 [2]: 550 nM; IC50 [4]: 100 to 1000 nM; IC50 [5]: 699 nM

Which results are given for `O=C(NCCO)c1cc(-c2ccccc2Cl)ccc1N1CC[C@H](Oc2ccc(C(F)(F)F)cn2)C1` [Compound 1-156, (S)-2′-chloro-N-(2-hydroxyethyl)-4-(3-(5-(trifluoromethyl)pyridin-2-yloxy)pyrrolidin-1-yl)biphenyl-3-carboxamide]?
IC50 [1]: > 1000 nM; IC50 [2]: 3750 nM
